Measurements from ChEMBL document CHEMBL4706477, “Synthesis and Biological Evaluation of Calothrixins B and their Deoxygenated Analogues” (J Med Chem, 2018).
Values belong to the molecule of their own block, whether it stands above or below them.

Assays:
[1] = tested on: NCI-H460; test: cells; conditions: Homo sapiens, NCI-H460, 48 h
Description: Antiproliferative activity against human NCI-H460 cells assessed as reduction in cell viability incubated for 48 hrs by sulphorhodamine B assay

[2] = tested on: U-251; test: cells; conditions: Homo sapiens, U-251, 48 h
Description: Antiproliferative activity against human U-251 cells assessed as reduction in cell viability incubated for 48 hrs by sulphorhodamine B assay

[3] = tested on: HCT-116; test: cells; conditions: Homo sapiens, HCT-116, 48 h
Description: Antiproliferative activity against human HCT-116 p53-/- cells assessed as reduction in cell viability incubated for 48 hrs by sulphorhodamine B assay

[4] = tested on: MCF7; test: cells; conditions: Homo sapiens, MCF7, 48 h
Description: Antiproliferative activity against human MCF7 cells assessed as reduction in cell viability incubated for 48 hrs by sulphorhodamine B assay

[5] = tested on: MDA-MB-231; test: cells; conditions: Homo sapiens, MDA-MB-231, 48 h
Description: Antiproliferative activity against human MDA-MB-231 cells assessed as reduction in cell viability incubated for 48 hrs by sulphorhodamine B assay

[6] = tested on: Jurkat; test: cells; conditions: Homo sapiens, 48 h
Description: Antiproliferative activity against human Jurkat cells assessed as reduction in cell viability incubated for 48 hrs by sulphorhodamine B assay

[7] = tested on: HeLa; test: cells; conditions: Homo sapiens, 48 h
Description: Antiproliferative activity against human HeLa cells assessed as reduction in cell viability incubated for 48 hrs by sulphorhodamine B assay

[8] = tested on: HCT-116; test: cells; conditions: Homo sapiens, HCT-116, 48 h; remark: listed apart in the source
Description: Antiproliferative activity against human HCT-116 cells assessed as reduction in cell viability incubated for 48 hrs by sulphorhodamine B assay

[9] = tested on: SiHa; test: cells; conditions: Homo sapiens, 48 h
Description: Antiproliferative activity against human SiHa cells assessed as reduction in cell viability incubated for 48 hrs by sulphorhodamine B assay

[10] = tested on: Calf thymus DNA; test: Binding affinity to calf thymus DNA assessed as hypochromic effect at 3*10^-5 mol/L by double beam UV-Vis spectroscopic analysis; assay type: nucleic-acid assay; conditions: Bos taurus
[11] = tested on: HEK293; test: Antiproliferative activity against human HEK293 cells assessed as reduction in cell viability incubated for 48 hrs by sulphorhodamine B assay; assay type: functional
[12] = tested on: A549; test: Antiproliferative activity against human A549 cells assessed as reduction in cell viability incubated for 48 hrs by sulphorhodamine B assay; assay type: functional

Compound: O=C1c2[nH]c3ccccc3c2C(=O)c2cnc3cc4c(cc3c21)OCO4
- GI50 [1]: > 4000 nM
- GI50 [2]: > 4000 nM
- GI50 [3]: > 4000 nM
- GI50 [4]: 110 nM
- GI50 [5]: > 4000 nM
- GI50 [6]: > 4000 nM
- GI50 [7]: > 4000 nM
- GI50 [8]: > 4000 nM
- GI50 [9]: > 4000 nM

Compound: O=C1c2[nH]c3ccccc3c2C(=O)c2cnc3cc(Cl)c(Cl)cc3c21
- GI50 [1]: > 4000 nM
- GI50 [2]: > 4000 nM
- GI50 [3]: > 4000 nM
- GI50 [4]: > 4000 nM
- GI50 [5]: 1800 nM
- GI50 [6]: > 4000 nM
- GI50 [7]: 1800 nM
- GI50 [8]: > 4000 nM
- GI50 [9]: > 4000 nM

Compound: COc1cccc2c3c(cnc12)C(=O)c1c([nH]c2ccccc12)C3=O
- GI50 [1]: > 4000 nM
- GI50 [2]: 1830 nM
- GI50 [3]: > 4000 nM
- GI50 [4]: 600 nM
- GI50 [5]: 310 nM
- GI50 [6]: > 4000 nM
- GI50 [7]: 390 nM
- GI50 [8]: 330 nM
- GI50 [9]: > 4000 nM

Compound: O=C1c2cnc3c(Cl)cccc3c2C(=O)c2[nH]c3ccccc3c21
- GI50 [1]: > 4000 nM
- GI50 [2]: > 4000 nM
- GI50 [3]: > 4000 nM
- GI50 [4]: > 4000 nM
- GI50 [5]: > 4000 nM
- GI50 [6]: > 4000 nM
- GI50 [7]: > 4000 nM
- GI50 [8]: > 4000 nM
- GI50 [9]: > 4000 nM

Compound: COc1ccc2ncc3c(c2c1)C(=O)c1[nH]c2ccccc2c1C3=O
- GI50 [1]: > 4000 nM
- GI50 [2]: > 4000 nM
- GI50 [3]: > 4000 nM
- GI50 [4]: > 4000 nM
- GI50 [5]: > 4000 nM
- GI50 [6]: > 4000 nM
- GI50 [7]: > 4000 nM
- GI50 [8]: 630 nM
- GI50 [9]: > 4000 nM

Compound: CC[C@@]1(O)C(=O)OCc2c1cc1n(c2=O)Cc2cc3ccccc3nc2-1 [CAMPTOTHECIN]
- GI50 [1]: 5.7 nM
- GI50 [2]: 10 nM
- GI50 [3]: 195 nM
- GI50 [4]: 60 nM
- GI50 [5]: 400 nM
- GI50 [6]: 60 nM
- GI50 [7]: 190 nM
- GI50 [8]: 50 nM
- GI50 [9]: 550 nM

Compound: COc1cc2ncc3c(c2cc1OC)C(=O)c1[nH]c2ccccc2c1C3=O
- GI50 [1]: > 4000 nM
- GI50 [2]: > 4000 nM
- GI50 [3]: > 4000 nM
- GI50 [4]: 360 nM
- GI50 [5]: > 4000 nM
- GI50 [6]: > 4000 nM
- GI50 [7]: > 4000 nM
- GI50 [8]: > 4000 nM
- GI50 [9]: > 4000 nM

Further lines, with some results ahead:

- GI50 [1]: 1050 nM
- GI50 [2]: 1200 nM
- GI50 [4]: 950 nM
- GI50 [5]: 900 nM
- Activity [10]: 38%
- GI50 [7]: 530 nM
- GI50 [8]: 1000 nM
Compound: Nc1nc2cc(Cl)ccc2c2cc3[nH]c4ccccc4c3cc12
- GI50 [9]: 1100 nM

- GI50 [1]: 140 nM
- GI50 [2]: 1200 nM
- GI50 [4]: 130 nM
- GI50 [5]: 1250 nM
- GI50 [7]: 10 nM
- GI50 [8]: 1200 nM
Compound: Nc1nc2cc(F)ccc2c2cc3[nH]c4ccccc4c3cc12
- GI50 [9]: 1350 nM

- GI50 [1]: > 4000 nM
- GI50 [2]: > 4000 nM
- GI50 [3]: > 4000 nM
- GI50 [4]: 1350 nM
- GI50 [5]: > 4000 nM
- GI50 [6]: > 4000 nM
- GI50 [7]: 2000 nM
- GI50 [8]: > 4000 nM
Compound: O=C1c2[nH]c3ccccc3c2C(=O)c2cnc3cc(F)c(Cl)cc3c21
- GI50 [9]: > 4000 nM

- GI50 [1]: > 50000 nM
- GI50 [2]: > 4000 nM
- GI50 [12]: > 4000 nM
- GI50 [4]: > 4000 nM
- GI50 [5]: > 4000 nM
- GI50 [6]: > 4000 nM
- GI50 [7]: > 4000 nM
- GI50 [8]: > 50000 nM
Compound: c1ccc2c(c1)ccc1cc3c(cc12)[nH]c1ccccc13
- GI50 [11]: > 4000 nM
- GI50 [9]: > 4000 nM

- GI50 [1]: 1270 nM
- GI50 [2]: 2000 nM
- GI50 [3]: 2600 nM
- GI50 [4]: 600 nM
- GI50 [5]: 1000 nM
- GI50 [6]: 1500 nM
- GI50 [7]: 210 nM
- GI50 [8]: 1500 nM
Compound: O=C1c2[nH]c3ccccc3c2C(=O)c2cnc3cc(Br)ccc3c21
- GI50 [9]: > 4000 nM
